For orientation: chromatographic logP means a lipophilicity value derived from retention on a column. A high value points to a more lipophilic compound. By logP is commonly meant a log measure of how a compound divides between an organic and an aqueous phase. Lower therefore signals a more hydrophilic compound.

Structures can show the parent of a compound that is named as a salt.

The first data set in a line: logP determination by HPLC (EEC directive 79/831 Annex V. A8). The format is physicochemical. To be noted: HPLC (gradient, acetonitrile/0.1% aqueous phosphoric acid), gradient method. On the procedure: logP values are determined in accordance with EEC directive 79/831 Annex V. A8 by HPLC (gradient method, acetonitrile/0.1% aqueous phosphoric acid). Preparation of Starting Materials
`CC(Nc1c(-c2ccc(F)cc2Cl)c(Cl)nc2c(C(=N)N)cnn12)C(C)(C)C` (single isomer, unassigned) [Example 3, 3-iminoamide-5-chloro-6-(2-chloro-4-fluorophenyl)-7-(3,3-dimethylbut-2-ylamino)pyrazolo[1,5-a]pyrimidine hydrochloride] returned a chromatographic logP of 2.72.

On to `N#Cc1cnn2c(Cl)c(-c3c(F)cccc3Cl)c(Cl)nc12` [Example 41], for which the chromatographic logP worked out at 3.31.

In turn, `N#Cc1cnn2c(Cl)c(-c3ccc(F)cc3Cl)c(Cl)nc12` [Example 40, 3-cyano-5,7-dichloro-6-(2-chloro-4-fluorophenyl)pyrazolo[1,5-a]pyrimidine] yielded a chromatographic logP of 3.49.

`CC(Nc1c(-c2c(F)cccc2Cl)c(Cl)nc2c(C(N)=O)cnn12)C(C)(C)C` (stereo not shown) [Example 1, 3-amido-5-chloro-6-(2-chloro-6-fluorophenyl)-7-(3,3-dimethylbut-2-ylamino)pyrazolo[1,5-a]pyrimidine] came in with a chromatographic logP of 3.62.

For the compound `CC(Nc1c(-c2c(F)cccc2Cl)c(Cl)nc2c(C#N)cnn12)C(C)(C)C` (stereo not shown) [Example 36, 3-cyano-5-chloro-6-(2-chloro-6-fluorophenyl)-7-(3,3-dimethylbut-2-ylamino)pyrazolo[1,5-a]pyrimidine], the chromatographic logP stood at 4.59.

On to `CC(Nc1c(-c2ccc(F)cc2Cl)c(Cl)nc2c(C#N)cnn12)C(C)(C)C` (stereo not shown) [Example 37], for which the chromatographic logP is 4.78.

As to `CC(Nc1c(-c2ccc(F)cc2Cl)c(Cl)nc2c(C(N)=NO)cnn12)C(C)(C)C` (stereo not shown) [Example 2, 3-hydroximinoamido-5-chloro-6-(2-chloro-4-fluorophenyl)-7-(3,3-dimethylbut-2-ylamino)pyrazolo[1,5-a]pyrimidine], the chromatographic logP was found to be 2.55.

The compound `N#Cc1cnn2c(O)c(-c3c(F)cccc3Cl)c(O)nc12` [Example 39] returned a chromatographic logP of 0.19.

Still in this data set, the particulars now being: gradient method, acetonitrile/0.1% aqueous phosphoric acid.
Compound `CC(Nc1c(-c2ccc(F)cc2Cl)c(Cl)nc2c(C=NNc3ccc([N+](=O)[O-])cc3[N+](=O)[O-])cnn12)C(C)(C)C` (stereo not shown) [Example 5, 3-(2,4-dinitriophenylhydraziminomethyl)-5-chloro-6-(2-chloro-4-fluorophenyl)-7-(3,3-dimethylbut-2-ylamino)pyrazolo[1,5-a]pyrimidine] had a chromatographic logP of 6.28.

Staying with this data set, now noted: gradient method, acetonitrile/0.1% aqueous phosphoric acid, hydrochloride.
`CC(Nc1c(-c2ccc(F)cc2Cl)c(Cl)nc2c(C(=N)N)cnn12)C(C)(C)C` (single isomer, unassigned) [Example 4, hydrochloride] returned a logP of 2.58.

These data come from patent US20060276478A1, “Pyrazolopyrimidines” (priority 2003, published 2006).
